Measured values as given in patent US10117430B2, “Malononitrile compounds for controlling animal pests” (BASF SE, priority 2012, dated 2018).

Legend:
Assay type in all cases: in vivo
[1] = tested on: Silverleaf Whitefly (Bemisia argentifolii); assay: B.5 Silverleaf whitefly test on sprayed cotton plants; details: 72 h, in comparison with untreated controls, 3 days after treatment
Protocol: B.5 Silverleaf Whitefly (Bemisia argentifolii)
The active compounds were formulated in cyclohexanone as a 10,000 ppm solution supplied in 1.3 ml ABgene® tubes. These tubes were inserted into an automated electrostatic sprayer equipped with an atomizing nozzle and they served as stock solutions for which lower dilutions were made in 50% acetone:50% water (v/v). A nonionic surfactant (Kinetic®) was included in the solution at a volume of 0.01% (v/v). Cotton plants at the cotyledon stage (one plant per pot) were sprayed by an automated electrostatic plant sprayer equipped with an atomizing spray nozzle. The plants were dried in the sprayer fume hood and then removed from the sprayer. Each pot was placed into a plastic cup and 10 to 12 whitefly adults (approximately 3-5 days old) were introduced. The insects were collected using an aspirator and 0.6 cm, nontoxic Tygon® tubing (R-3603) connected to a barrier pipette tip. The tip, containing the collected insects, was then gently inserted into the soil containing the treated plant, allowing insects to crawl out of the tip to reach the foliage for feeding. Cups were covered with a reusable screened lid (150-micron mesh polyester screen PeCap from Tetko, Inc.). Test plants were maintained in a growth room at 25° C. and 20-40% relative humidity for 3 days, avoiding direct exposure to fluorescent light (24 hour photoperiod) to prevent trapping of heat inside the cup. Mortality was assessed 3 days after treatment, compared to untreated control plants.

[2] = tested on: Rice brown plant hopper (Nilaparvata lugens); assay: B.11 Rice brown plant hopper test on sprayed rice seedlings; details: in comparison with untreated controls, after 72 hours
Protocol: B.11 Rice brown plant hopper (Nilaparvata lugens)
Rice seedlings were cleaned and washed 24 hours before spraying. The active compounds were formulated in 50:50 acetone:water (vol:vol) and 0.1% vol/vol surfactant (EL 620) was added. Potted rice seedlings were sprayed with 5 ml test solution, air dried, placed in cages and inoculated with 10 adults. Treated rice plants were kept at about 28-29° C. and relative humidity of about 50-60%. Percent mortality was recorded after 72 hours.

[3] = tested on: Boll Weevil (Anthonomus grandis); assay: B.9 Boll weevil microtiter diet test, egg and larval mortality; details: 120 h, in comparison with untreated controls, egg and larval mortality after 5 days
Protocol: B.9 Boll Weevil (Anthonomus grandis)
For evaluating control of boll weevil (Anthonomus grandis) the test unit consisted of 24-well-microtiter plates containing an insect diet and 20-30 A. grandis eggs. The compounds were formulated using a solution containing 75% v/v water and 25% v/v DMSO. Different concentrations of formulated compounds were sprayed onto the insect diet at 20 μl, using a custom built micro atomizer, at two replications. After application, microtiter plates were incubated at about 23±1° C. and about 50±5% relative humidity for 5 days. Egg and larval mortality was then visually assessed.

[4] = tested on: Cowpea Aphid (Aphis craccivora); assay: B.1 Cowpea aphid spray test on potted cowpea plants; details: in comparison with untreated controls, population reduction assessed after 24, 72 and 120 hours
Protocol: B.1 Cowpea Aphid (Aphis craccivora)
The active compounds were formulated in 50:50 (v/v) acetone:water. The test solution was prepared at the day of use. Potted cowpea plants colonized with approximately 100-150 aphids of various stages were sprayed after the pest population has been recorded. Population reduction was assessed after 24, 72, and 120 hours.

[5] = tested on: Yellow Fever Mosquito (Aedes aegypti); assay: whole plant or invertebrate; details: 48 h, in comparison with untreated controls, larval mortality after 2 days
Protocol: B.12 Yellow Fever Mosquito (Aedes aegypti)
For evaluating control of yellow fever mosquito (Aedes aegypti) the test unit consisted of 96-well-microtiter plates containing 200 μl of tap water per well and 5-15 freshly hatched A. aegypti larvae. The compounds or mixtures were formulated using a solution containing 75% water and 25% DMSO. Different concentrations of formulated compounds or mixtures were sprayed onto the insect diet at 2.5 μl, using a custom built micro atomizer, at two replications. After application, microtiter plates were incubated at 28±1° C., 80±5% relative humidity for 2 days. Larval mortality was then visually assessed.

[6] = tested on: Orchid Thrips (Dichromothrips corbetti); assay: B.4 Orchid thrips floral-immersion test; details: 96 h, in comparison with untreated controls, after 4 days
Protocol: B.4 Orchid Thrips (Dichromothrips Corbetti)
Dichromothrips corbetti adults used for bioassay are obtained from a colony maintained continuously under laboratory conditions. For testing purposes, the test compound is diluted to a concentration of 300 ppm (wt compound: vol diluent) in a 1:1 mixture of acetone:water (vol:vol), plus 0.01% vol/vol Kinetic® surfactant. Thrips potency of each compound is evaluated by using a floral-immersion technique. Plastic petri dishes are used as test arenas. All petals of individual, intact orchid flowers are dipped into treatment solution and allowed to dry. Treated flowers are placed into individual petri dishes along with 10-15 adult thrips. The petri dishes are then covered with lids. All test arenas are held under continuous light and a temperature of about 28° C. for duration of the assay. After 4 days, the numbers of live thrips are counted on each flower, and along inner walls of each petri dish. The level of thrips mortality is extrapolated from pre-treatment thrips numbers.

[7] = tested on: Green Peach Aphid (Myzus persicae); assay: B.3 Green peach aphid systemic test, artificial diet under membrane; details: 72 h, concentration of the test solution 2500 mg/L, 3 days
Source text: B.3 Green Peach Aphid (Myzus persicae)
For evaluating control of green peach aphid (Myzus persicae) through systemic means the test unit consisted of 96-well-microtiter plates containing liquid artificial diet under an artificial membrane. The compounds were formulated using a solution containing 75% v/v water and 25% v/v DMSO. Different concentrations of formulated compounds were pipetted into the aphid diet, using a custom built pipetter, at two replications. After application, 5-8 adult aphids were placed on the artificial membrane inside the microtiter plate wells. The aphids were then allowed to suck on the treated aphid diet and incubated at about 23±1° C. and about 50±5% relative humidity for 3 days. Aphid mortality and fecundity was then visually assessed.

[8] = tested on: Vetch Aphid (Megoura viciae); assay: B.7 Vetch aphid test on broad bean leaf disks; details: foliar, 120 h, in comparison with untreated controls, 5 days
Protocol: B.7 Vetch Aphid (Megoura viciae)
For evaluating control of vetch aphid (Megoura viciae) through contact or systemic means the test unit consisted of 24-well-microtiter plates containing broad bean leaf disks. The compounds were formulated using a solution containing 75% v/v water and 25% v/v DMSO. Different concentrations of formulated compounds were sprayed onto the leaf disks at 2.5 μl, using a custom built micro atomizer, at two replications. After application, the leaf disks were air-dried and 5-8 adult aphids placed on the leaf disks inside the microtiter plate wells. The aphids were then allowed to suck on the treated leaf disks and incubated at about 23±1° C. and about 50±5% relative humidity for 5 days. Aphid mortality and fecundity was then visually assessed.

[9] = tested on: Mediterranean Fruitfly (Ceratitis capitata); assay: B.2 Mediterranean fruitfly microtiter diet test, egg and larval mortality; details: 120 h, in comparison with untreated controls, egg and larval mortality after 5 days
Protocol: B.2 Mediterranean Fruitfly (Ceratitis capitata)
For evaluating control of Mediterranean fruitfly (Ceratitis capitata) the test unit consisted of microtiter plates containing an insect diet and 50-80 C. capitata eggs. The compounds were formulated using a solution containing 75% v/v water and 25% v/v DMSO. Different concentrations of formulated compounds were sprayed onto the insect diet at 5 μl, using a custom built micro atomizer, at two replications. After application, microtiter plates were incubated at about 28±1° C. and about 80±5% relative humidity for 5 days. Egg and larval mortality was then visually assessed.

[10] = tested on: Green Soldier Stink Bug (Nezara viridula); assay: B.15 Green soldier stink bug test on sprayed soybean pods; details: 120 h, in comparison with untreated controls, after 5 days
Protocol: B.15 Green Soldier Stink Bug (Nezara viridula)
The active compound is dissolved at the desired concentration in a mixture of 1:1 (vol:vol) distilled water:aceteone. Surfactant (Kinetic HV) is added at a rate of 0.01% (vol/vol). The test solution is prepared at the day of use. Soybean pods were placed in microwavable plastic cups lined with moist filter paper and inoculated with ten 3rd instar N. viridula. Using a hand atomizer, an approximately 2 ml solution is sprayed into each cup. Treated cups were kept at about 28-29° C. and relative humidity of about 50-60%. Percent mortality was recorded after 5 days.

C#Cc1ccc(C(C#N)(C#N)Cc2ccc(C(F)(F)F)nc2)cc1 [II-1]
≥ 75%: mortality at 500 ppm [1] | mortality at 300 ppm [2] | mortality at 2500 ppm [3]

N#CC(C#N)(Cc1ccc(C(F)(F)F)nc1)c1ccc(Cl)cc1 [II-2]
≥ 75%: mortality at 500 ppm [1] | mortality at 500 ppm [4] | mortality at 2500 ppm [5] | mortality at 500 ppm [6] | mortality at 2500 ppm [3]

N#CC(C#N)(Cc1ccc(Br)cn1)c1ccc(F)cc1 [II-10, 2-[(5-bromo-2-pyridyl)methyl]-2-(4-fluorophenyl)propanedinitrile]
≥ 75%: mortality at 500 ppm [6] | mortality at 300 ppm [2] | mortality at 2500 ppm [3]

N#CC(C#N)(Cc1ccc(F)cn1)c1ccc(F)cc1 [II-12]
≥ 75%: mortality at 500 ppm [1]

N#CC(C#N)(Cc1ccc(C(F)(F)F)nn1)c1ccccc1 [II-13]
≥ 75%: mortality at 500 ppm [1] | mortality at 2500 µg/mL [7] | mortality at 2500 ppm [5] | mortality at 2500 ppm [3]

N#CC(C#N)(Cc1ccc(C(F)(F)F)nn1)c1cccc(F)c1 [II-15]
≥ 75%: mortality at 500 ppm [1] | mortality at 2500 µg/mL [7] | mortality at 500 ppm [4] | mortality at 2500 ppm [5] | mortality at 500 ppm [6] | mortality at 2500 ppm [3]

N#CC(C#N)(Cc1ncc(C(F)(F)F)cn1)c1cccc(F)c1 [II-18]
≥ 75%: mortality at 500 ppm [1] | mortality at 2500 ppm [8] | mortality at 2500 µg/mL [7] | mortality at 2500 ppm [5] | mortality at 500 ppm [6] | mortality at 2500 ppm [3]

Cc1cccc(C(C#N)(C#N)Cc2ccc(C(F)(F)F)nc2)c1 [II-22]
≥ 75%: mortality at 300 ppm [2]

N#CC(C#N)(Cc1cnc(C(F)(F)F)nc1)c1ccc(F)cc1 [II-23]
≥ 75%: mortality at 500 ppm [1] | mortality at 2500 ppm [8] | mortality at 2500 µg/mL [7] | mortality at 500 ppm [4] | mortality at 2500 ppm [9] | mortality at 2500 ppm [5] | mortality at 500 ppm [6] | mortality at 300 ppm [2] | mortality at 2500 ppm [3]

N#CC(C#N)(Cc1ccc(C(F)(F)F)nc1)c1ccccc1F [II-24]
≥ 75%: mortality at 500 ppm [1] | mortality at 2500 ppm [5] | mortality at 500 ppm [6] | mortality at 300 ppm [2] | mortality at 2500 ppm [3]

N#CC(C#N)(Cc1cnc(C(F)(F)F)cn1)c1ccc(F)cc1 [II-27]
≥ 75%: mortality at 500 ppm [1] | mortality at 2500 ppm [8] | mortality at 2500 ppm [9] | mortality at 2500 ppm [5] | mortality at 500 ppm [6] | mortality at 300 ppm [2] | mortality at 2500 ppm [3]

N#CC(C#N)(Cc1ccccn1)c1ccccc1 [II-29]
≥ 75%: mortality at 2500 ppm [5]

N#CC(C#N)(Cc1ccc(C(F)(F)F)cn1)c1ccccc1F [II-36]
≥ 75%: mortality at 500 ppm [1] | mortality at 2500 ppm [5] | mortality at 300 ppm [2] | mortality at 2500 ppm [3]

Cc1cccc(C(C#N)(C#N)Cc2ccc(C(F)(F)F)cn2)c1 [II-37]
≥ 75%: mortality at 2500 ppm [5]

COc1cccc(C(C#N)(C#N)Cc2ccc(C(F)(F)F)cn2)c1 [II-39]
≥ 75%: mortality at 2500 µg/mL [7]

N#CC(C#N)(Cc1ccc(C(F)(F)F)nc1)c1cc(F)cc(C(F)(F)F)c1 [II-46]
≥ 75%: mortality at 2500 ppm [5] | mortality at 500 ppm [6]

Cc1cc(C)cc(C(C#N)(C#N)Cc2ccc(C(F)(F)F)cn2)c1 [II-47]
≥ 75%: mortality at 500 ppm [4] | mortality at 2500 ppm [5]

N#CC(C#N)(Cc1ccc(C(F)(F)F)cn1)c1cccc(F)c1F [II-49]
≥ 75%: mortality at 500 ppm [10] | mortality at 500 ppm [6] | mortality at 300 ppm [2]

N#CC(C#N)(Cc1ccc(C(F)(F)F)nc1)c1cc(C(F)(F)F)cc(C(F)(F)F)c1 [II-54]
≥ 75%: mortality at 2500 ppm [5]

N#CC(C#N)(Cc1ccc(C(F)(F)F)cn1)c1cc(C(F)(F)F)cc(C(F)(F)F)c1 [II-60]
≥ 75%: mortality at 2500 ppm [5]

Cc1cccc(CC(C#N)(C#N)c2cc(F)c(F)c(F)c2)n1 [II-65]
≥ 75%: mortality at 500 ppm [10] | mortality at 2500 ppm [5] | mortality at 500 ppm [6] | mortality at 300 ppm [2] | mortality at 2500 ppm [3]

N#CC(C#N)(Cc1c(Cl)cncc1Cl)c1cc(F)c(F)c(F)c1 [II-66]
≥ 75%: mortality at 2500 ppm [8] | mortality at 2500 ppm [5]
